BigSolDB 2.1

Conditions: in n-octanol

Cc1ccccc1C(=O)O
Conditions	solubility (mole fraction)
297.15 K	0.155
299.65 K	0.165
301.15 K	0.18
302.65 K	0.19
304.75 K	0.196
305.35 K	0.197
306.25 K	0.2
306.95 K	0.208
308.95 K	0.219
310.65 K	0.23
312.25 K	0.239
314.05 K	0.25
315.75 K	0.26
316.95 K	0.271
318.75 K	0.281
320.35 K	0.294
321.55 K	0.305

Cc1ccc(C(=O)O)cc1
Conditions	solubility (mole fraction)
297.35 K	0.0595
298.05 K	0.0608
298.95 K	0.0618
301.65 K	0.0663
307.25 K	0.0767
308.65 K	0.0789
309.65 K	0.0816
312.95 K	0.0871
314.35 K	0.0896
315.8 K	0.0925
317.65 K	0.0962
319.65 K	0.0997
320.4 K	0.101
321.55 K	0.103
322.15 K	0.104

O=C(O)c1ccccc1
Conditions	solubility (mole fraction)
300.15 K	0.192

O=C(O)c1ccccc1[N+](=O)[O-]
Conditions	solubility (mole fraction)
297.15 K	0.0761
299.65 K	0.0806
300.15 K	0.084
302.05 K	0.0895
303.15 K	0.0928
306.15 K	0.101
307.15 K	0.104
308.35 K	0.108
309.25 K	0.113
310.15 K	0.117
311.75 K	0.122
313.15 K	0.129
314.85 K	0.135
317.15 K	0.141
318.65 K	0.147
319.85 K	0.154
321.15 K	0.161

O=C(O)c1ccc(O)cc1
Conditions	solubility (mole fraction)
297.65 K	0.105
299.95 K	0.107
301.45 K	0.109
302.85 K	0.11
304.25 K	0.112
305.85 K	0.113
306.95 K	0.115
308.15 K	0.116
309.85 K	0.117
311.25 K	0.119
313.15 K	0.121
315.45 K	0.122
317.25 K	0.124
318.65 K	0.126
320.55 K	0.128
322.25 K	0.13
